System: P. falciparum 3D7 parasites
Assay: Metabolomic profiling of compound-treated parasites (LC/MS);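 as to Metabolite data: 3-Phosphoglycerate: Log2 fold change in abundance versus untreated parasite controls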;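 as to Metabolite data: Myo-Inositol: Log2 fold change in abundance versus untreated parasite controls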;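 as to Metabolite data: N-Carbamoyl-L-Aspartate: Log2 fold change in abundance versus untreated parasite controls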;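 as to Metabolite data: Nicotinate: Log2 fold change in abundance versus untreated parasite controls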
Type: cell-based
Parameters: Metabolite data: dTMP / Metabolite data: GMP / Metabolite data: S-Adenosyl-L-Homocysteine / Metabolite data: 1_3-Bisphosphoglyceric acid: scale not given here
Description: The metabolite extraction protocol was performed as described elsewhere ([Allman et al., 2016]). Briefly, 1 mL of trophozoites that were magnetically purified to a concentration of 1×10^8 parasites/mL were placed into wells with 4 mL of RPMI 1640 media and allowed to recover for one hour. […] The culture was incubated for another 2.5 hr. The culture was centrifuged and quenched with 90% methanol containing 0.25 μM ^13C,^15N-Labeled-Aspartate, vortexed, and centrifuged. The supernatant was transferred to a new tube and dried for storage. Prior to analysis, the samples were resuspended to a final concentration of 1×10^8 parasites/mL in a solution of 3% methanol:water containing 1 μM chlorpropamide as an internal standard.
The chromatographic conditions used in this experiment were performed with slight modifications from previous methods ([Zhang et al., 2018]). Briefly, a Waters XSelect HSS C18 column was used on a gradient reverse-phase chromatographic configuration with 97:3 water:methanol with 10 mM tributylamine and 15 mM acetic acid (solvent A) and methanol (solvent B). A Thermo-Scientific Exactive Plus Orbitrap mass spectrometer was operated in negative mode for the detection of the metabolites. Peak picking and integration were performed using El-Maven LC/MS data processing software. The peak data were then exported to Excel where metabolite areas were normalized to the internal standards, blank subtracted, and averaged by condition.

With `Cc1cc(Nc2ccc3ccccc3c2)n2ncnc2n1` [DSM1] as the compound, how does the “Metabolite data: 1_3-Bisphosphoglyceric acid” value read?
Its value is 0.

And the “Metabolite data: 2_3-Diphosphoglyceric acid” value?
Its value is -0.2991.

And the “Metabolite data: 3-Phosphoglycerate” value?
Its value is -0.4141.

And the “Metabolite data: 4-Aminobutyrate” value?
The value was 0.009246.

What about the “Metabolite data: 4-Phosphopantothenate” value of the same compound?
Its value is -0.5403.

And the “Metabolite data: 4-phosphopantetheine” value?
Its value is 0.

What about the “Metabolite data: 5-aminopentanoic acid” value of the same compound?
Its value is 0.

What about the “Metabolite data: 5-phosphoribosyl-1-pyrophosphate” value of the same compound?
The value was 0.

And the “Metabolite data: 6-Phospho-D-Gluconate” value?
The value was -0.253.

What about the “Metabolite data: ADP-D-Glucose” value of the same compound?
The value was -0.1243.

And the “Metabolite data: Acetyl-CoA” value?
The value was -0.3243.

And the “Metabolite data: Acetyllysine” value?
Its value is -0.16.

What about the “Metabolite data: Aconitate” value of the same compound?
Its value is -0.837.

And the “Metabolite data: CDP” value?
Its value is -0.7937.

What about the “Metabolite data: CDP-Ethanolamine” value of the same compound?
The value was -0.6098.

And the “Metabolite data: CDP-choline” value?
The value was 0.

And the “Metabolite data: CMP” value?
Its value is -1.862.

And the “Metabolite data: CTP” value?
Its value is -3.137.

What about the “Metabolite data: Citrate/Isocitrate” value of the same compound?
Its value is -0.6885.

What about the “Metabolite data: Cyclic-AMP” value of the same compound?
The value was -0.9051.

And the “Metabolite data: Dihydroorotate” value?
The value was 2.672.

And the “Metabolite data: FAD” value?
Its value is -0.1625.

What about the “Metabolite data: FMN” value of the same compound?
The value was -0.9996.

What about the “Metabolite data: Fructose-1,6-Bisphosphate” value of the same compound?
The value was -0.4129.

And the “Metabolite data: Fumarate” value?
The value was -1.402.

And the “Metabolite data: GDP” value?
The value was 0.4797.

And the “Metabolite data: GMP” value?
Its value is 0.1634.

And the “Metabolite data: GTP” value?
Its value is -1.061.

What about the “Metabolite data: Glucose-1/6-Phosphate” value of the same compound?
The value was -0.4979.

And the “Metabolite data: Glutathione Disulfide” value?
Its value is -0.412.

What about the “Metabolite data: Hexose” value of the same compound?
The value was 0.

And the “Metabolite data: Hydroxyisocaproic acid” value?
Its value is 0.

What about the “Metabolite data: Indole” value of the same compound?
Its value is -0.8571.

And the “Metabolite data: Ketoleucine” value?
Its value is 0.

What about the “Metabolite data: L-arginino-succinate” value of the same compound?
The value was 0.

And the “Metabolite data: Lactate” value?
The value was -0.809.

What about the “Metabolite data: Malate” value of the same compound?
The value was -1.549.

And the “Metabolite data: Myo-Inositol” value?
Its value is -1.331.

And the “Metabolite data: N-Acetyl-Glutamate” value?
Its value is -0.2257.

What about the “Metabolite data: N-Acetyl-L-Alanine” value of the same compound?
The value was -0.1646.

And the “Metabolite data: N-Acetyl-L-Ornithine” value?
Its value is -0.5891.

What about the “Metabolite data: N-Carbamoyl-L-Aspartate” value of the same compound?
The value was 2.4139.

What about the “Metabolite data: NAD+” value of the same compound?
The value was -0.1986.

And the “Metabolite data: NADH” value?
Its value is 0.07835.

What about the “Metabolite data: NADP+” value of the same compound?
Its value is -0.1908.

And the “Metabolite data: NADPH” value?
Its value is -0.3915.

What about the “Metabolite data: Nicotinate” value of the same compound?
The value was -0.7359.

And the “Metabolite data: Octulose 8/1-Phosphate” value?
The value was -0.4585.

What about the “Metabolite data: Orotate” value of the same compound?
Its value is -2.835.

And the “Metabolite data: PD” value?
The value was -0.209.

And the “Metabolite data: PE” value?
Its value is -0.4415.

And the “Metabolite data: PEEK” value?
Its value is -0.4847.

And the “Metabolite data: Phenol Red” value?
Its value is 0.

What about the “Metabolite data: Pyroglutamic acid” value of the same compound?
Its value is -0.2671.

And the “Metabolite data: S-Adenosyl-L-Homocysteine” value?
The value was -0.1944.

What about the “Metabolite data: S-methyl-5'-thioadenosine” value of the same compound?
The value was -0.4315.

And the “Metabolite data: SD” value?
The value was -0.8655.

What about the “Metabolite data: Sedoheptulose Bisphosphate” value of the same compound?
The value was -0.2224.

And the “Metabolite data: UDP” value?
Its value is -2.0359.

What about the “Metabolite data: UDP-D-Glucose” value of the same compound?
Its value is -0.2988.

What about the “Metabolite data: UDP-D-Glucuronate” value of the same compound?
Its value is -0.2168.

What about the “Metabolite data: UDP-N-Acetyl-Glucosamine” value of the same compound?
The value was -0.4693.

What about the “Metabolite data: UMP” value of the same compound?
Its value is -2.06.

What about the “Metabolite data: UTP” value of the same compound?
The value was -4.388.

What about the “Metabolite data: a-ketoglutarate” value of the same compound?
Its value is -0.7348.

And the “Metabolite data: acetyl-aspartate” value?
Its value is 0.

And the “Metabolite data: arginine” value?
The value was 0.

And the “Metabolite data: asparagine” value?
The value was 0.

And the “Metabolite data: aspartate” value?
The value was 0.

And the “Metabolite data: biotin” value?
Its value is 0.

And the “Metabolite data: chlorpropamide” value?
The value was 0.

What about the “Metabolite data: coenzyme A” value of the same compound?
Its value is 0.

And the “Metabolite data: dAMP” value?
Its value is 1.7179.

What about the “Metabolite data: dATP” value of the same compound?
Its value is -0.3141.

And the “Metabolite data: dCDP” value?
Its value is -0.1509.

What about the “Metabolite data: dCMP” value of the same compound?
Its value is -1.099.

What about the “Metabolite data: dCTP” value of the same compound?
The value was -2.549.

And the “Metabolite data: dGDP/ADP” value?
The value was 0.1331.

And the “Metabolite data: dGMP/AMP” value?
Its value is 0.02924.

And the “Metabolite data: dGTP/ATP” value?
Its value is 0.

What about the “Metabolite data: dTDP” value of the same compound?
The value was -1.607.

And the “Metabolite data: dTMP” value?
Its value is -2.786.

And the “Metabolite data: dTTP” value?
The value was -3.44.

And the “Metabolite data: folate” value?
The value was 0.

What about the “Metabolite data: glucono-lactone” value of the same compound?
The value was 0.

And the “Metabolite data: glutamate” value?
Its value is 0.

And the “Metabolite data: glutamine” value?
The value was 0.

What about the “Metabolite data: glutathione” value of the same compound?
The value was 0.

What about the “Metabolite data: histidine” value of the same compound?
The value was 0.

What about the “Metabolite data: hydroxyproline/Aminolevulinate” value of the same compound?
Its value is 0.

And the “Metabolite data: isoleucine” value?
The value was 0.

What about the “Metabolite data: leucine” value of the same compound?
Its value is 0.

And the “Metabolite data: maleic acid” value?
Its value is 0.

What about the “Metabolite data: methionine” value of the same compound?
Its value is 0.

What about the “Metabolite data: nicotinamide mononucleotide” value of the same compound?
The value was 0.

What about the “Metabolite data: orotidine-5'-phosphate” value of the same compound?
The value was 0.

Which results are given for `COc1cc2[nH]c(C)c(-c3ccc(Oc4ccc(OC(F)(F)F)cc4)cc3)c(=O)c2cc1Cl` [ELQ-300]?
Metabolite data: 1_3-Bisphosphoglyceric acid: 0; Metabolite data: 2_3-Diphosphoglyceric acid: -0.1098; Metabolite data: 3-Phosphoglycerate: 0.01477; Metabolite data: 4-Aminobutyrate: 0.29; Metabolite data: 4-Phosphopantothenate: -0.3711; Metabolite data: 4-phosphopantetheine: 0; Metabolite data: 5-aminopentanoic acid: 0; Metabolite data: 5-phosphoribosyl-1-pyrophosphate: 0; Metabolite data: 6-Phospho-D-Gluconate: 0.1987; Metabolite data: ADP-D-Glucose: -0.03292; Metabolite data: Acetyl-CoA: -0.7931; Metabolite data: Acetyllysine: -0.0938; Metabolite data: Aconitate: 0.3201; Metabolite data: CDP: -0.9142; Metabolite data: CDP-Ethanolamine: -0.4266; Metabolite data: CDP-choline: 0; Metabolite data: CMP: -0.5539; Metabolite data: CTP: -0.7898; Metabolite data: Citrate/Isocitrate: 0.1898; Metabolite data: Cyclic-AMP: 0.1104; Metabolite data: Dihydroorotate: 5.061; Metabolite data: FAD: 0.09303; Metabolite data: FMN: -1.009; Metabolite data: Fructose-1,6-Bisphosphate: 0.1196; Metabolite data: Fumarate: 0.1542; Metabolite data: GDP: -0.04006; Metabolite data: GMP: 0.4588; Metabolite data: GTP: 0.1697; Metabolite data: Glucose-1/6-Phosphate: 0.2608; Metabolite data: Glutathione Disulfide: -0.1199; Metabolite data: Hexose: 0; Metabolite data: Hydroxyisocaproic acid: 0; Metabolite data: Indole: 0.2721; Metabolite data: Ketoleucine: 0; Metabolite data: L-arginino-succinate: 0; Metabolite data: Lactate: -0.08432; Metabolite data: Malate: 0.0586; Metabolite data: Myo-Inositol: -0.4815; Metabolite data: N-Acetyl-Glutamate: 0.1479; Metabolite data: N-Acetyl-L-Alanine: -0.6073; Metabolite data: N-Acetyl-L-Ornithine: -0.1715; Metabolite data: N-Carbamoyl-L-Aspartate: 4.761; Metabolite data: NAD+: 0.09044; Metabolite data: NADH: 1.43; Metabolite data: NADP+: -0.1602; Metabolite data: NADPH: 3.029; Metabolite data: Nicotinate: 0.05305; Metabolite data: Octulose 8/1-Phosphate: -0.704; Metabolite data: Orotate: 0.01858; Metabolite data: PD: -0.006669; Metabolite data: PE: -0.3407; Metabolite data: PEEK: -0.3859; Metabolite data: Phenol Red: 0; Metabolite data: Pyroglutamic acid: 0.05668; Metabolite data: S-Adenosyl-L-Homocysteine: -1.868; Metabolite data: S-methyl-5'-thioadenosine: -0.1055; Metabolite data: SD: -0.2791; Metabolite data: Sedoheptulose Bisphosphate: 0.0682; Metabolite data: UDP: -1.596; Metabolite data: UDP-D-Glucose: -0.0232; Metabolite data: UDP-D-Glucuronate: 0.002049; Metabolite data: UDP-N-Acetyl-Glucosamine: -0.1795; Metabolite data: UMP: -0.8903; Metabolite data: UTP: -1.292; Metabolite data: a-ketoglutarate: 0.1255; Metabolite data: acetyl-aspartate: 0; Metabolite data: arginine: 0; Metabolite data: asparagine: 0; Metabolite data: aspartate: 0; Metabolite data: biotin: 0; Metabolite data: chlorpropamide: 0; Metabolite data: coenzyme A: 0; Metabolite data: dAMP: -0.0907; Metabolite data: dATP: 0.4618; Metabolite data: dCDP: -0.107; Metabolite data: dCMP: -0.1246; Metabolite data: dCTP: -0.4381; Metabolite data: dGDP/ADP: -0.01599; Metabolite data: dGMP/AMP: -0.06466; Metabolite data: dGTP/ATP: 0; Metabolite data: dTDP: -1.258; Metabolite data: dTMP: -1.023; Metabolite data: dTTP: -1.011; Metabolite data: folate: 0; Metabolite data: glucono-lactone: 0; Metabolite data: glutamate: 0; Metabolite data: glutamine: 0; Metabolite data: glutathione: 0; Metabolite data: histidine: 0; Metabolite data: hydroxyproline/Aminolevulinate: 0; Metabolite data: isoleucine: 0; Metabolite data: leucine: 0; Metabolite data: maleic acid: 0; Metabolite data: methionine: 0; Metabolite data: nicotinamide mononucleotide: 0; Metabolite data: orotidine-5'-phosphate: 0
